Laboratory results: patent publication US7192746B2, “α-Isomaltosyltransferase, process for producing the same and use thereof” (Kabushiki Kaisha Hayashibara Seibutsu Kagaku Kenkyujo, priority 2000, dated 2007)

How the values were obtained:
[1] = Amino carbonyl reaction with glycine; assay type: physicochemical; conditions: 10% (w/v) with 1% (w/v) glycine, pH 7.0, 100° C.
Method: Four milliliter aliquots of the resulting solution were placed in glass test tubes, sealed, and heated at 100° C. for 30 to 90 min. After allowing to stand for cooling at ambient temperature, each of the resulting solutions was measured for coloration degree to examine their amino carbonyl reactivity. The coloration degree was evaluated based on the absorbance in a cell with 1-cm light pass at a wavelength of 480 nm.

[2] = tested on: Eubacterium aerofaciens ATCC 25986 strain; test: Assimilation test; assay type: cell-based; conditions: PYF medium with 0.5% saccharide, 37° C., four days, anaerobic
[3] = tested on: internal content of rat cecum; test: Fermentation test; assay type: in vitro ADME
Method: The internal content of rat cecum was collected by anesthetizing a Wister male rat with ether, allowing the rat to die, collecting the internal content under anaerobic conditions, and suspending the resultant with 4-fold volumes of a 0.1 M aqueous solution of sodium bicarbonate. Cyclotetrasaccharide was added in an amount of about 7% by weight to the weight of the internal contents of rat cecum, and the contents of cyclotetrasaccharide, which still remained just after and 12 hours after the addition of the internal contents, were quantified on gas chromatography.

[4] = Saturation concentration of cyclotetrasaccharide in water; assay type: physicochemical; conditions: for Saturation concentration of cyclotetrasaccharide: water
Excerpt: The resulting each saturated solution of cyclotetrasaccharide was membrane filtered to remove undissolved cyclotetrasaccharide, and each filtrate was then examined for moisture content by the drying loss method and determined for a saturation concentration of cyclotetrasaccharide at respective temperatures.

[5] = tested on: Bifidobacterium adolescentis JCM 1275 strain; test: Assimilation test; assay type: cell-based; conditions: PYF medium with 0.5% saccharide, 37° C., four days, anaerobic
[6] = target: T1, salivary amylase (Homo sapiens, UniProt P0DUB6)
T1 sequence (P0DUB6 16-511): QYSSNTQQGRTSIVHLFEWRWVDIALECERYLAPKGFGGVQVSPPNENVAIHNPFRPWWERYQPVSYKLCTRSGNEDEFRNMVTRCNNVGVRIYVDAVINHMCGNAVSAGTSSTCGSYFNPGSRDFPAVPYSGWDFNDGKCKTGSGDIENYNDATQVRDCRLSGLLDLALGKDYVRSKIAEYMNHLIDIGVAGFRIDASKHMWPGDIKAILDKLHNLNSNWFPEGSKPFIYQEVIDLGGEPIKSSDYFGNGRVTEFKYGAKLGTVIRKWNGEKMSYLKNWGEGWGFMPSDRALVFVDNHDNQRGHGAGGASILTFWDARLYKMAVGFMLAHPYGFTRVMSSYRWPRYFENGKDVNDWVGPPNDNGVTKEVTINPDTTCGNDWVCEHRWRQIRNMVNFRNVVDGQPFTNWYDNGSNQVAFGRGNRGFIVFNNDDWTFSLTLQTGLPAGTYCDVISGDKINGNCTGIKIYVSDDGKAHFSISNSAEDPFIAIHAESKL

[7] = tested on: α-isomaltosyl-transferring enzyme from Bacillus globisporus C9; test: Action on saccharides (substrates, TLC); assay type: biochemical; set-up: key: −: there was found no substrate change before and after the enzymatic reaction; +: there were found both the reduction of substrate and the formation of cyclotetrasaccharide after the enzymatic reaction; conditions: 2 units/g substrate, 2% (w/v) substrate, 30° C., pH 6.0, 24 hours
Outline: (§1)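 We incubate purified enzyme (2 units/g substrate) with 2% (w/v) saccharide for 24 h at 30° C., pH 6.0. Pre- and post-reaction samples are then compared on silica TLC.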

[8] = tested on: α-isomaltosyl-transferring enzyme from Bacillus globisporus C11; test: Action on saccharides (substrates, TLC); assay type: biochemical; set-up: key: −: there was found no substrate change before and after the enzymatic reaction; +: there were found both the reduction of substrate and the formation of cyclotetrasaccharide after the enzymatic reaction; conditions: 2 units/g substrate, 2% (w/v) substrate, 30° C., pH 6.0, 24 hours
Outline: as §1

[9] = tested on: α-isomaltosyl-transferring enzyme from Arthrobacter ramosus S1; test: Action on saccharides (substrates, TLC); assay type: biochemical; set-up: key: −: there was found no substrate change before and after the enzymatic reaction; +: there were found both the reduction of substrate and the formation of cyclotetrasaccharide after the enzymatic reaction; conditions: 2 units/g substrate, 2% (w/v) substrate, 30° C., pH 6.0, 24 hours
Outline: as §1

[10] = tested on: α-isomaltosyl-transferring enzyme from Arthrobacter globiformis A19; test: Action on saccharides (substrates, TLC); assay type: biochemical; set-up: key: −: there was found no substrate change before and after the enzymatic reaction; +: there were found both the reduction of substrate and the formation of cyclotetrasaccharide after the enzymatic reaction; conditions: partially purified enzyme, 2 units/g substrate, 2% (w/v) substrate, 30° C., pH 6.0, 24 hours
Outline: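 Each candidate saccharide, from malto- and isomalto-oligosaccharides to cyclodextrins, starch, pullulan and dextran, was prepared at 2% (w/v). Two units/g substrate of enzyme were added, then the mixture was held at pH 6.0, 30° C., 24 hours. Samples were then analysed by silica gel TLC.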

[11] = tested on: α-isomaltosyl-transferring enzyme from Bacillus globisporus N75; test: Action on saccharides (substrates, TLC); assay type: biochemical; set-up: key: −: there was found no substrate change before and after the enzymatic reaction; +: there were found both the reduction of substrate and the formation of cyclotetrasaccharide after the enzymatic reaction; conditions: 2 units/g substrate, 2% (w/v) substrate, 30° C., pH 6.0, 24 hours
Outline: as §1

[12] = tested on: small intestinal mucosal enzyme; test: Digestion test in vitro

OCC1OC2OCC3O[C@H](O[C@H]4C(O)C(CO)OC(OCC5O[C@H](O[C@@H](C1O)C2O)C(O)C(O)[C@@H]5O)C4O)C(O)C(O)[C@@H]3O (stereo partly drawn) [Cyclotetrasaccharide, cyclo{→6)-α-D-glucopyranosyl-(1→3)-α-D-glucopyranosyl-(1→6)-α-D-glucopyranosyl-(1→3)-α-D-glucopyranosyl-(1→}]
Coloration degree (A480 nm) ([1]; heating time 0 min): 0.00
Coloration degree (A480 nm) ([1]; heating time 30 min): 0.00
Coloration degree (A480 nm) ([1]; heating time 60 min): 0.00
Coloration degree (A480 nm) ([1]; heating time 90 min): 0.00
Assimilability [2]: − (negative (−) when the post culture had a pH of 6.0 or higher)
Cyclotetrasaccharide remained without being fermented ([3]; 12 hours): 93%
Content of cyclotetrasaccharide remaining ([3]; 12 hours after the addition): 63.0 mg per one gram of the internal contents of rat cecum
Content of cyclotetrasaccharide remaining ([3]; just after the addition): 68.0 mg per one gram of the internal contents of rat cecum
Weight of cyclotetrasaccharide dissolved in 100 g water ([4]; 10° C.): 43.5 g
Weight of cyclotetrasaccharide dissolved in 100 g water ([4]; 30° C.): 51.9 g
Weight of cyclotetrasaccharide dissolved in 100 g water ([4]; 50° C.): 74.2 g
Weight of cyclotetrasaccharide dissolved in 100 g water ([4]; 70° C.): 112.7 g
Weight of cyclotetrasaccharide dissolved in 100 g water ([4]; 90° C.): 239.0 g
Saturation concentration of cyclotetrasaccharide ([4]; 10° C.): 30.3%
Saturation concentration of cyclotetrasaccharide ([4]; 30° C.): 34.2%
Saturation concentration of cyclotetrasaccharide ([4]; 50° C.): 42.6%
Saturation concentration of cyclotetrasaccharide ([4]; 70° C.): 53.0%
Saturation concentration of cyclotetrasaccharide ([4]; 90° C.): 70.5%
Assimilability [5]: − (negative (−) when the post culture had a pH of 6.0 or higher)
Decomposition percentage by digestive enzyme [6]: 0.0%

OC[C@@H](O)[C@@H](O[C@H]1O[C@H](CO)[C@@H](O)[C@H](O)[C@H]1O)[C@H](O)[C@@H](O)CO [Maltitol, maltitol]
Enzymatic action for forming cyclotetrasaccharide, Enzyme of Strain C9 [7]: −
Enzymatic action for forming cyclotetrasaccharide, Enzyme of Strain C11 [8]: −
Enzymatic action for forming cyclotetrasaccharide, Enzyme of Strain S1 [9]: −
Enzymatic action for forming cyclotetrasaccharide, Enzyme of Strain A19 [10]: −
Enzymatic action for forming cyclotetrasaccharide, Enzyme of Strain N75 [11]: −
Decomposition percentage by digestive enzyme [12]: 4.0%
